In the supplement of paper PMC4862054:
One block for each compound: values may come before it.

Key:
Settings in all cases: 72 h
CAL-51 [1] = tested on: CAL-51
Procedure: (§1)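 Drug sensitivity and resistance testing (DSRT) of breast cancer cell lines in 384-well plates, 5 concentrations in 10-fold dilutions over a compound-specific 10,000-fold range. After 72 h, cytotoxicity was read by CellTox Green fluorescence and viability by CellTiter-Glo luminescence (multiplexed), normalised to DMSO and benzethonium chloride controls. EC50 is the inflection point of the fitted dose-response curve (bottom asymptote free, so it can be relative for partial curves) and is censored at the highest tested concentration. Rows with DSS 0 (no meaningful response) were excluded.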

CAL-85-1 [2] = tested on: CAL-85-1
Procedure: as §1

MDA-MB-231 [3] = tested on: MDA-MB-231
Procedure: as §1

Hs578T [4] = tested on: Hs578T
Procedure: as §1

MDA-MB-468 [5] = tested on: MDA-MB-468
Procedure: as §1

HCC1599 [6] = tested on: HCC1599
Method in brief: (§2)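 Breast cancer cell lines (20 µl suspension) were seeded into 384-well plates holding compound at 5 concentrations in 10-fold steps over a compound-specific 10,000-fold range, then incubated 72 h. Cell death was read first by CellTox Green fluorescence (485/520 nm), then viability by CellTiter-Glo luminescence after 10 min at room temperature. Each plate was normalised to 0.1 % DMSO and a positive kill control. EC50 was fitted from the dose-response curves and censored at the top concentration.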

SK-BR-3 [7] = tested on: SK-BR-3
Method in brief: as §2

HCC1143 [8] = tested on: HCC1143
Method in brief: as §2

BT-549 [9] = tested on: BT-549
Method in brief: as §2

CAL-85-1 [10] = tested on: CAL-85-1; remark: listed apart in the source
Method in brief: as §2

MDA-MB-231 [11] = tested on: MDA-MB-231; remark: listed apart in the source
Method in brief: as §2

HCC1937 [12] = tested on: HCC1937
Method in brief: as §2

Hs578T [13] = tested on: Hs578T; remark: listed apart in the source
Method in brief: as §2

HDQ-P1 [14] = tested on: HDQ-P1
Method in brief: as §2

CAL-120 [15] = tested on: CAL-120
Method in brief: as §2

MDA-MB-436 [16] = tested on: MDA-MB-436
Method in brief: as §2

MCF-10A [17] = tested on: MCF-10A
Method in brief: as §2

MDA-MB-453 = tested on: MDA-MB-453
Method in brief: as §2

MFM-223 [18] = tested on: MFM-223
Method in brief: (§3)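 Each 384-well plate was pre-loaded with compound dissolved in 5 µl medium, received breast cancer cells in 20 µl suspension, and was incubated 72 h. A 2.5 µl addition of CellTiter-Blue for 2 h at 37 °C was followed by a fluorescence read at 560/590 nm. Data were normalised per plate to vehicle and a positive kill control and checked by Z'-factor. EC50 was fitted from the percent-inhibition dose-response curve, censored at the highest concentration, excluding rows with a drug sensitivity score of zero.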

CAL-51 [19] = tested on: CAL-51; remark: listed apart in the source
Method in brief: as §3

DU-4475 [20] = tested on: DU-4475
Method in brief: as §3

CAL-85-1 [21] = tested on: CAL-85-1; remark: listed apart in the source
Method in brief: as §3

HDQ-P1 [22] = tested on: HDQ-P1; remark: listed apart in the source
Method in brief: as §3

HCC1599 [23] = tested on: HCC1599; remark: listed apart in the source
Method in brief: as §3

BT-474 [24] = tested on: BT-474
Method in brief: as §3

SK-BR-3 [25] = tested on: SK-BR-3; remark: listed apart in the source
Method in brief: as §3

HCC1143 [26] = tested on: HCC1143; remark: listed apart in the source
Method in brief: as §3

BT-549 [27] = tested on: BT-549; remark: listed apart in the source
Method in brief: as §3

MDA-MB-231 [28] = tested on: MDA-MB-231; remark: listed apart in the source
Method in brief: as §3

HCC1937 [29] = tested on: HCC1937; remark: listed apart in the source
Method in brief: as §3

Hs578T [30] = tested on: Hs578T; remark: listed apart in the source
Method in brief: as §3

MDA-MB-468 [31] = tested on: MDA-MB-468; remark: listed apart in the source
Method in brief: as §3

CAL-120 [32] = tested on: CAL-120; remark: listed apart in the source
Method in brief: as §3

MDA-MB-436 [33] = tested on: MDA-MB-436; remark: listed apart in the source
Method in brief: as §3

BT-474 [34] = tested on: BT-474; remark: listed apart in the source
Procedure: as §1

DU-4475 [35] = tested on: DU-4475; remark: listed apart in the source
Procedure: as §1

HCC1143 [36] = tested on: HCC1143; remark: listed apart in the source
Procedure: as §1

CAL-148 [37] = tested on: CAL-148
Procedure: as §1

HCC1937 [38] = tested on: HCC1937; remark: listed apart in the source
Procedure: as §1

HDQ-P1 [39] = tested on: HDQ-P1; remark: listed apart in the source
Procedure: as §1

CAL-120 [40] = tested on: CAL-120; remark: listed apart in the source
Procedure: as §1

MCF-10A [41] = tested on: MCF-10A; remark: listed apart in the source
Procedure: as §1

DU-4475 [42] = tested on: DU-4475; remark: listed apart in the source
Method in brief: as §2

CAL-148 [43] = tested on: CAL-148; remark: listed apart in the source
Method in brief: as §2

MFM-223 [44] = tested on: MFM-223; remark: listed apart in the source
Method in brief: as §2

EC50, CellTiter-Glo (HCC1599 [6]): 236 nM
EC50, CellTiter-Glo (SK-BR-3 [7]): 458 nM
EC50, CellTiter-Glo (HCC1143 [8]): 361 nM
EC50, CellTiter-Glo (BT-549 [9]): 131 nM
EC50, CellTiter-Glo (MDA-MB-231 [11]): 193 nM
EC50, CellTiter-Glo (HCC1937 [12]): 593 nM
EC50, CellTiter-Glo (MDA-MB-436 [16]): 237 nM
EC50, CellTiter-Glo (MDA-MB-453): 672 nM
SMILES: NC(=O)Nc1cc(-c2cccc(F)c2)sc1C(=O)N[C@H]1CCCNC1 [AZD7762]
EC50, CellTox Green (CAL-51 [1]): 500 nM
EC50, CellTox Green (CAL-85-1 [2]): 75.8 nM
EC50, CellTox Green (MDA-MB-231 [3]): 745 nM
EC50, CellTox Green (Hs578T [4]): 2.65 nM
EC50, CellTox Green (MDA-MB-468 [5]): 26.5 nM
EC50, CellTiter-Glo (CAL-85-1 [10]): 112 nM
EC50, CellTiter-Glo (Hs578T [13]): 467 nM
EC50, CellTiter-Glo (HDQ-P1 [14]): 570 nM
EC50, CellTiter-Glo (CAL-120 [15]): 255 nM
EC50, CellTiter-Glo (MCF-10A [17]): 499 nM

EC50, CellTiter-Glo (HCC1599 [6]): 165 nM
EC50, CellTiter-Glo (SK-BR-3 [7]): 254 nM
SMILES: C=C(c1ccc(C(=O)O)cc1)c1cc2c(cc1C)C(C)(C)CCC2(C)C [Bexarotene]

EC50, CellTiter-Blue viability (BT-549 [27]): 23.1 nM
EC50, CellTiter-Blue viability (MDA-MB-231 [28]): 156 nM
EC50, CellTiter-Blue viability (HCC1937 [29]): 29.6 nM
EC50, CellTiter-Blue viability (MDA-MB-468 [31]): 44.5 nM
SMILES: CCN(CCCOc1ccc2c(Nc3cc(CC(=O)Nc4cccc(F)c4)[nH]n3)ncnc2c1)CCOP(=O)(O)O [Barasertib]
EC50, CellTiter-Blue viability (CAL-51 [19]): 37.9 nM
EC50, CellTiter-Blue viability (DU-4475 [20]): 375 nM
EC50, CellTiter-Blue viability (CAL-85-1 [21]): 9.39 nM
EC50, CellTiter-Blue viability (Hs578T [30]): 12.5 nM
EC50, CellTiter-Blue viability (CAL-120 [32]): 30 nM

The next lines start with the compound.

SMILES: C[C@]12CC[C@@H]3c4ccc(O)cc4C[C@@H](CCCCCCCCC[S+]([O-])CCCC(F)(F)C(F)(F)F)[C@H]3[C@@H]1CC[C@@H]2O (some centres not stated) [Fulvestrant]
EC50, CellTiter-Blue viability (MFM-223 [18]): 74.5 nM

SMILES: CO[C@H]1/C=C\C=C(/C)C(=O)NC2=CC(=O)C(NCCN(C)C)=C(C[C@@H](C)C[C@H](OC)[C@H](O)[C@@H](C)/C=C(\C)[C@@H]1OC(N)=O)C2=O [Alvespimycin]
EC50, CellTiter-Blue viability (CAL-51 [19]): 53.3 nM
EC50, CellTiter-Blue viability (DU-4475 [20]): 15.3 nM
EC50, CellTiter-Blue viability (CAL-85-1 [21]): 35.1 nM
EC50, CellTiter-Blue viability (HDQ-P1 [22]): 22.6 nM
EC50, CellTiter-Blue viability (HCC1599 [23]): 17.4 nM
EC50, CellTiter-Blue viability (BT-474 [24]): 22.9 nM
EC50, CellTiter-Blue viability (SK-BR-3 [25]): 8.15 nM
EC50, CellTiter-Blue viability (HCC1143 [26]): 26.2 nM
EC50, CellTiter-Blue viability (BT-549 [27]): 6.08 nM
EC50, CellTiter-Blue viability (MDA-MB-231 [28]): 38.9 nM
EC50, CellTiter-Blue viability (MFM-223 [18]): 8.78 nM
EC50, CellTiter-Blue viability (HCC1937 [29]): 7.56 nM
EC50, CellTiter-Blue viability (Hs578T [30]): 5.38 nM
EC50, CellTiter-Blue viability (MDA-MB-468 [31]): 60.5 nM
EC50, CellTiter-Blue viability (CAL-120 [32]): 27.4 nM
EC50, CellTiter-Blue viability (MDA-MB-436 [33]): 19.9 nM
EC50, CellTox Green (CAL-51 [1]): 35.8 nM
EC50, CellTox Green (BT-474 [34]): 77.3 nM
EC50, CellTox Green (DU-4475 [35]): 26.6 nM
EC50, CellTox Green (HCC1143 [36]): 138 nM
EC50, CellTox Green (CAL-148 [37]): 45 nM
EC50, CellTox Green (CAL-85-1 [2]): 187 nM
EC50, CellTox Green (MDA-MB-231 [3]): 171 nM
EC50, CellTox Green (HCC1937 [38]): 781 nM
EC50, CellTox Green (Hs578T [4]): 242 nM
EC50, CellTox Green (HDQ-P1 [39]): 12.2 nM
EC50, CellTox Green (MDA-MB-468 [5]): 682 nM
EC50, CellTox Green (CAL-120 [40]): > 1000 nM
EC50, CellTox Green (MCF-10A [41]): 37.9 nM
EC50, CellTiter-Glo (HCC1599 [6]): 91.5 nM
EC50, CellTiter-Glo (DU-4475 [42]): 34 nM
EC50, CellTiter-Glo (SK-BR-3 [7]): 11 nM
EC50, CellTiter-Glo (HCC1143 [8]): 34.8 nM
EC50, CellTiter-Glo (CAL-148 [43]): 38.7 nM
EC50, CellTiter-Glo (BT-549 [9]): 8.13 nM
EC50, CellTiter-Glo (CAL-85-1 [10]): 41.8 nM
EC50, CellTiter-Glo (MDA-MB-231 [11]): 46.2 nM
EC50, CellTiter-Glo (MFM-223 [44]): 17.6 nM
EC50, CellTiter-Glo (HCC1937 [12]): 44.1 nM
EC50, CellTiter-Glo (Hs578T [13]): 45.7 nM
EC50, CellTiter-Glo (HDQ-P1 [14]): 30.2 nM
EC50, CellTiter-Glo (CAL-120 [15]): 46.2 nM
EC50, CellTiter-Glo (MDA-MB-436 [16]): 11.3 nM
EC50, CellTiter-Glo (MCF-10A [17]): 40.8 nM
EC50, CellTiter-Glo (MDA-MB-453): 19.8 nM

SMILES: Cc1ccc(-n2nc(C(C)(C)C)cc2NC(=O)Nc2ccc(OCCN3CCOCC3)c3ccccc23)cc1 [Doramapimod]
EC50, CellTiter-Blue viability (CAL-85-1 [21]): 27.3 nM
EC50, CellTiter-Glo (MFM-223 [44]): 2800 nM
